Experimental data reported in patent US9259389B2, “Pharmaceutical oral dosage form containing a synthetic oligosaccharide” (ENDOTIS PHARMA, priority 2009, dated 2016).
Read-outs that look alike come from different tables or passages of the source. Values belong to the molecule of their own block, whether it stands above or below them.

Experiment: Bioavailability after Direct Intra-Duodenal Infusion (DIDI) administration in rat
Assay type: in vivo
Conditions: for bioavailability: female, Wistar Han, plasma, other: direct intra-duodenal infusion (DIDI), read-out: DIDI (bioavailability F after Direct Intra-Duodenal Infusion)
Excerpt: Pharmacokinetic Study after Direct Intra-Duodenal Injection:
Direct Intra-Duodenal Infusion (DIDI) has been performed in fasted female Wistar Han rats (175-250 g) to determine the ability of oligosaccharide compounds, in a formulation according to the present invention, to cross the intestinal barrier.
Animals were anesthetized with isoflurane gas in a closed induction chamber and held under anesthesia (3% isoflurane and 2.4 l/min rate) until sacrifice at the end of the experiment. After shaving, a laparotomy was performed and the duodenum exposed. A small pore was created upper the bile duct into the duodenum using a high temperature cautery fine tip. A flexible catheter was inserted into the duodenal lumen through the hole and the upper part of the duodenum was closed and the catheter immobilized by clipping with a forceps. A syringe containing the formulation according to the present invention and diluted as indicated below was placed onto the flexible catheter and the syringe's plunger was slowly depressed releasing the material into the duodenum. Immediately after, a 0.9% NaCl solution was injected (50 μl) to ensure complete compound administration. At this step, peritoneal cavity and skin of the rats were closed using silk suture.
The dose of the oligosaccharide compound according to the present invention to be administrated is 2 mg/kg of body weight or 4 mg/kg of body weight. Therefore, each rat received the quantity of the formulation corresponding to this dosage (i.e. for the dose of 2 mg/kg of body weight, 0.4 mg per rat of 200 g, corresponding to 40 mg of formulation for a formulation containing 1% by weight of the oligosaccharide), diluted extemporaneously at ambient temperature in water for injection with a total volume of administration of 500 μl.
Sometimes, it can be advantageous to first heat the formulation to 37° C. for 15 min under agitation to optimize dilution of the formulation.
Blood samples were collected over a certain period of time (in general 0.25; 0.5; 1; 1.5; 2; 2.5 h) and plasma analyzed as described below.
Quantification of the Compounds in Plasma:
Plasma concentration of the synthetic oligosaccharide (μg compound/mL plasma) was determined using a bioassay based on the factor Xa inhibitory activity of the compounds in the presence of antithrombin (AT). First, AT was added in excess to the plasma sample, allowing 1/1 oligosaccharide/AT complex formation. Factor Xa was then added in excess, and remaining active factor Xa was determined by spectrophotometry at 405 nm using a chromogenic reagent as a substrate. A dose-response curve was established for each compound to be quantified in rat plasma.
Pharmacokinetic Study after Intravenous Administration: […]

Molecule: CO[C@H]1O[C@H](COS(=O)(=O)O)[C@@H](O[C@@H]2O[C@@H](C(=O)O)[C@@H](O[C@H]3O[C@H](COS(=O)(=O)O)[C@@H](O[C@@H]4O[C@H](C(=O)O)[C@@H](O[C@H]5O[C@H](COS(=O)(=O)O)[C@@H](O)[C@H](O)[C@H]5NS(=O)(=O)O)[C@H](O)[C@H]4O)[C@H](OS(=O)(=O)O)[C@H]3NS(=O)(=O)O)[C@H](O)[C@H]2OS(=O)(=O)O)[C@H](O)[C@H]1NS(=O)(=O)O [Fondaparinux, reference compound]
bioavailability (active: sodium fondaparinux, dose delivered 2 mg/kg, AUC0-2 DIDI vs intravenous): 3%

Molecule: CCCCOC1C(COS(=O)(=O)[O-])OC(OC2C(OC)C(OC)C(OC3C(COS(=O)(=O)[O-])OC(OC4COC(OC5C(COS(=O)(=O)[O-])OC(OC)C(OS(=O)(=O)[O-])C5O)[C@H](OCC(=O)[O-])C4OC)C(OS(=O)(=O)[O-])C3OS(=O)(=O)[O-])OC2(CC)C(=O)[O-])C(N)C1OCCCC.[Na+].[Na+].[Na+].[Na+].[Na+].[Na+].[Na+].[Na+] (stereo partly shown) [Sodium salt of 122 without formulation]
bioavailability (active: sodium salt of compound 122, AUC0-2 DIDI vs intravenous): 2.5 ± 1%

Molecule: CCC1(C(=O)[O-])OC(OC2C(COS(=O)(=O)[O-])OC(OC3COC(OC4C(COS(=O)(=O)[O-])OC(OC)C(OS(=O)(=O)[O-])C4OC)[C@H](OCC(=O)[O-])C3OC)C(OS(=O)(=O)[O-])C2OS(=O)(=O)[O-])C(OC)C(OC)C1OC1OC(COS(=O)(=O)[O-])C(OCCOCCOCCOCCN)C(OC)C1OC.[Na+].[Na+].[Na+].[Na+].[Na+].[Na+].[Na+].[Na+] (stereo partly shown) [Sodium salt of 147 without formulation]
bioavailability (active: sodium salt of compound 147, AUC0-2 DIDI vs intravenous): 1 ± 10%

DIDI (bioavailability F after Direct Intra-Duodenal Infusion) (active: Fondaparinux Benzathine, 2 mg/kg, AUC0-2 DIDI vs intravenous): 2 ± 1%
Molecule: Fondaparinux Benzathine
